For one test, the system named is HCT-116. The test is described as follows: Cytotoxicity against human HCT116 cells. In kind it is functional, cell-based.
The test system of test [1] is PC-3. As to the kind of experiment: Cytotoxicity against human PC3 cells. It is filed as functional, cell-based.
The test system of the next test is HeLa. The test is described as follows: Cytotoxicity against human HeLa cells. It is filed as functional, cell-based.
A further test has as its system Caco-2. The test is described as follows: Cytotoxicity against human Caco2 cells. In kind it is functional, cell-based.
The subject of a further test is MCF7. As to the kind of experiment: Cytotoxicity against human MCF7 cells. It is filed as functional, cell-based.
Another test has as its system SK-BR-3. The test is described as follows: Cytotoxicity against human SKBR3 cells. In kind it is functional, cell-based.
For another test, the system named is PANC-1. As to the kind of experiment: Cytotoxicity against human PANC1 cells. In kind it is functional.
The test system of the next test is MDA-MB-231. As to the kind of experiment: Cytotoxicity against human MDA-MB-231 cells. In kind it is functional.
A further test has as its system SiHa. The test is described as follows: Cytotoxicity against human SiHa cells. It is filed as functional.
Test [2] concerns PC-3. As to the kind of experiment: cells. Particulars: Homo sapiens, PC-3, 48 h.
A further test has as its system HT-29. The test is described as follows: cells. Particulars: Homo sapiens, HT-29, 48 h.

SMILES strings stand for the structures. pIC50: −log10 of the molar value. Values after ≈ are worked out from the molar mass of the structure shown.

Description for HT-29: Antiproliferative activity against human HT-29 cells after 48 hrs by MTT assay

In general, IC50 refers to the point on the concentration scale where inhibition reaches its midpoint. A high value points to a need for much substance. For `O=C(/C=C/c1ccccc1Oc1nnnn1-c1ccccc1)c1ccccc1`, the IC50 in the test with HCT-116 came out at 0.6 µg/mL (≈ 1.63 µM); in the test with PC-3 [1] it was 1.6 µg/mL (≈ 4.34 µM).

One may read the pIC50 as the IC50 on a negative log10 scale, so that one unit is a factor of ten. A lower pIC50 goes with a high IC50. With `COc1ccccc1C1C(c2nnn[nH]2)=C(N)Oc2ccc3ccccc3c21` (configuration not stated), the pIC50 in the test with HeLa, with Caco-2, with MCF7 and with SK-BR-3 was 4.06 to 4.82 throughout.

By GI50 is commonly meant the concentration that inhibits growth by half. Lower therefore signals more potent growth inhibition. For the compound `CCn1cc(C(=O)O)c(=O)c2cnc(N3CCN(C(=O)CCSc4nnnn4-c4ccc(Br)cc4)CC3)nc21`, the GI50 with PANC-1 was 0.07 µM; in the test on MDA-MB-231, 0.22 µM; in the test on SiHa, 0.08 µM.

Consider `COc1ccc(C2C(c3nnn[nH]3)=C(N)Oc3ccc4ccccc4c32)cc1` (configuration not stated), for which the pIC50 in the test with HeLa, with Caco-2, in the test with MCF7 and in the test with SK-BR-3 was 4.06 to 4.82 throughout.

For the compound `O=C(O)Cn1nnc(-c2cn(-c3ccccc3)nc2-c2ccccc2)n1`, the pIC50 in the test on PC-3 [2] was 4.15; in the test on HT-29, 4.06.

For the compound `COc1cc(-n2nnnc2SCCC(=O)N2CCN(c3cc4c(cc3F)c(=O)c(C(=O)O)cn4C3CC3)CC2)cc(OC)c1OC`, the GI50 with PANC-1, in the test with MDA-MB-231 and with SiHa was 0.066 to 1.3 µM throughout.

For the compound `COc1cc(/C=C/C(=O)c2ccccc2OC)ccc1Oc1nnnn1-c1ccccc1`, the IC50 in the test with HCT-116 and in the test on PC-3 [1] was 2.5 to 7 µg/mL (≈ 5.84 to 16.3 µM) each time.

For `COc1cc(/C=C/C(=O)c2ccc(Br)cc2)ccc1Oc1nnnn1-c1ccccc1`, the IC50 with HCT-116 and with PC-3 [1] was 2.5 to 7 µg/mL (≈ 5.24 to 14.7 µM) in each case.

For the compound `O=C(O)c1cn(C2CC2)c2cc(N3CCN(C(=O)CCSc4nnnn4-c4ccc(F)c(F)c4F)CC3)c(F)cc2c1=O`, the GI50 with PANC-1, in the test on MDA-MB-231 and in the test with SiHa was 0.066 to 1.3 µM in each case.

Consider `Cc1ccc(-c2nn(-c3ccccc3)cc2-c2nnn(CC(=O)O)n2)cc1`, for which the pIC50 in the test on PC-3 [2] and with HT-29 was 4.32 to 5.14 each time.

Turning to `COc1ccc(C2C(c3nnn[nH]3)=C(N)Oc3ccc4ccccc4c32)c(OC)c1` (configuration not stated), the pIC50 with HeLa, with Caco-2, in the test on MCF7 and in the test on SK-BR-3 was 4.59 to 4.82 in each case.

Regarding `COc1cccc(C2C(c3nnn[nH]3)=C(N)Oc3ccc4ccccc4c32)c1OC` (configuration not stated), the pIC50 with HeLa, with Caco-2, with MCF7 and with SK-BR-3 was 4.06 to 4.82 each time.

As for `CCn1cc(C(=O)O)c(=O)c2cnc(N3CCN(C(=O)CCSc4nnnn4-c4ccc(F)c(F)c4F)CC3)nc21`, the GI50 in the test on PANC-1, in the test with MDA-MB-231 and in the test on SiHa was 0.066 to 1.3 µM each time.

As to `O=C(O)c1cn(C2CC2)c2cc(N3CCN(C(=O)CCSc4nnnn4Cc4ccccc4)CC3)c(F)cc2c1=O`, the GI50 with PANC-1, in the test with MDA-MB-231 and with SiHa was 0.085 to 1.15 µM throughout.

On to `O=C(O)c1cn(C2CC2)c2cc(N3CCN(C(=O)CCSc4nnnn4-c4ccc(C(F)(F)F)cc4)CC3)c(F)cc2c1=O`, for which the GI50 in the test with PANC-1, in the test on MDA-MB-231 and in the test with SiHa was 0.066 to 1.3 µM in each case.

In the case of `COc1cc(/C=C/C(=O)c2cccs2)ccc1Oc1nnnn1-c1ccccc1`, the half-maximal inhibitory concentration (IC50) turned out to be 2.5 µg/mL (≈ 6.18 µM) in the test on HCT-116, 2.9 µg/mL with MCF7 and 5 µg/mL (≈ 12.4 µM) with PC-3 [1].

For `COc1cc(/C=C/C(=O)c2ccco2)ccc1Oc1nnnn1-c1ccccc1`, the IC50 in the test with HCT-116 and with PC-3 [1] was 2.5 to 7 µg/mL (≈ 6.44 to 18 µM) throughout.

Regarding `O=C(O)c1cn(C2CC2)c2cc(N3CCN(C(=O)CCSc4nnnn4-c4ccccc4)CC3)c(F)cc2c1=O`, the GI50 in the test on PANC-1, in the test on MDA-MB-231 and with SiHa was 0.085 to 1.15 µM throughout.

For the compound `CCn1cc(C(=O)O)c(=O)c2cnc(N3CCN(C(=O)CCSc4nnnn4-c4ccc(OC)c(OC)c4OC)CC3)nc21`, the GI50 with PANC-1, in the test on MDA-MB-231 and in the test on SiHa was 0.066 to 1.3 µM each time.

As to `NC1=C(c2nnn[nH]2)C(c2cccc(O)c2)c2c(ccc3ccccc23)O1` (configuration not stated), the pIC50 with HeLa, in the test on Caco-2, in the test with MCF7 and in the test with SK-BR-3 was 4.06 to 4.82 throughout.

For the compound `COc1cc(/C=C/C(=O)c2ccc(C)cc2)ccc1Oc1nnnn1-c1ccccc1`, the IC50 in the test with HCT-116 and in the test with PC-3 [1] was 2.5 to 7 µg/mL (≈ 6.06 to 17 µM) each time.

Regarding `O=C(O)c1cn(C2CC2)c2cc(N3CCN(C(=O)CCSc4nnnn4-c4ccc(Br)cc4)CC3)c(F)cc2c1=O`, the GI50 in the test with PANC-1, in the test on MDA-MB-231 and in the test with SiHa was 0.066 to 1.3 µM in each case.

For `NC1=C(c2nnn[nH]2)C(c2ccccc2Cl)c2c(ccc3ccccc23)O1` (configuration not stated), the pIC50 in the test on HeLa, in the test on Caco-2, with MCF7 and with SK-BR-3 was 4.06 to 4.82 each time.

Turning to `CCn1cc(C(=O)O)c(=O)c2cnc(N3CCN(C(=O)CCSc4nnnn4-c4ccc(C(F)(F)F)cc4)CC3)nc21`, the GI50 in the test with PANC-1, in the test on MDA-MB-231 and in the test on SiHa was 0.066 to 1.3 µM in each case.

Take `COc1cc(/C=C/C(=O)c2ccc(Cl)cc2)ccc1Oc1nnnn1-c1ccccc1`: the IC50 in the test with HCT-116 and in the test with PC-3 [1] was 2.5 to 7 µg/mL (≈ 5.78 to 16.2 µM) in each case.

Regarding `COc1cc(/C=C/C(=O)c2ccc(F)cc2)ccc1Oc1nnnn1-c1ccccc1`, the IC50 in the test on HCT-116 and in the test on PC-3 [1] was 2.5 to 7 µg/mL (≈ 6 to 16.8 µM) in each case.

On to `NC1=C(c2nnn[nH]2)C(c2ccccc2F)c2c(ccc3ccccc23)O1` (configuration not stated), for which the pIC50 with HeLa, in the test on Caco-2, in the test on MCF7 and with SK-BR-3 was 4.06 to 4.82 in each case.

`CCc1ccc(C2C(c3nnn[nH]3)=C(N)Oc3ccc4ccccc4c32)cc1` (configuration not stated): the pIC50 with HeLa, with Caco-2, in the test with MCF7 and with SK-BR-3 was 4.06 to 4.82 each time.

With `O=C(O)Cn1nnc(-c2cn(-c3ccccc3)nc2-c2ccccc2Cl)n1`, the pIC50 in the test with PC-3 [2] and in the test on HT-29 was 4.74 to 5.19 in each case.

With `COc1ccc(OC)c(C2C(c3nnn[nH]3)=C(N)Oc3ccc4ccccc4c32)c1` (configuration not stated), the pIC50 with HeLa, in the test on Caco-2, in the test with MCF7 and with SK-BR-3 was 4.06 to 4.82 each time.

Consider `NC1=C(c2nnn[nH]2)C(c2ccc(Br)cc2)c2c(ccc3ccccc23)O1` (configuration not stated), for which the pIC50 in the test on HeLa, with Caco-2, with MCF7 and in the test with SK-BR-3 was 4.06 to 4.82 in each case.

Take `COc1ccc(C(=O)/C=C/c2ccc(Oc3nnnn3-c3ccccc3)cc2)cc1OC`: the IC50 in the test with HCT-116 worked out at 3.7 µg/mL (≈ 8.64 µM); with PC-3 [1], 3 µg/mL (≈ 7 µM).

Turning to `COc1ccc(C(=O)/C=C/c2ccc(Oc3nnnn3-c3ccccc3)c(OC)c2)cc1OC`, the IC50 in the test with HCT-116 turned out to be 1.6 µg/mL (≈ 3.49 µM); in the test with PC-3 [1] it was 2.2 µg/mL (≈ 4.8 µM).

As to `O=C(O)Cn1nnc(-c2cn(-c3ccccc3)nc2-c2ccc(Cl)cc2)n1`, the pIC50 is 5.01 in the test on PC-3 [2] and 5.19 in the test with HT-29.

Turning to `NC1=C(c2nnn[nH]2)C(c2ccc(Cl)cc2)c2c(ccc3ccccc23)O1` (configuration not stated), the pIC50 in the test on HeLa, in the test with Caco-2, in the test on MCF7 and with SK-BR-3 was 4.06 to 4.82 in each case.

For the compound `O=c1[nH]cc(F)c(=O)[nH]1` [FLUOROURACIL], the IC50 with HCT-116 was 17.3 µg/mL (≈ 133 µM); in the test on MCF7, 9.74 to 21.4 µg/mL; in the test on PC-3 [1], 21.4 µg/mL (≈ 165 µM). In addition, the pIC50 in the test on HeLa, with Caco-2 and with SK-BR-3 was 4.77 to 5.00 in each case.

Turning to `CC/C(=C(\c1ccccc1)c1ccc(OCCN(C)C)cc1)c1ccccc1` [TAMOXIFEN], the GI50 in the test on PANC-1 is 0.15 µM; with MDA-MB-231, 0.24 µM; with SiHa, 0.12 µM.

Source of the values: ChEMBL document CHEMBL4364264, “Tetrazole hybrids with potential anticancer activity” (Eur J Med Chem, 2019).
